Laboratory results published in ChEMBL document CHEMBL6134876, “End-to-End Backbone Cyclization Enhances Passive Permeability of bRo5 Oligomeric Depsipeptides with Nonlinear Size Dependence” (ACS Med Chem Lett, 2025).
Starred links: 1 amine or outer side, 2 acyl side, 3 side chain; linkers in the order of their positions; H or OH if unused. Non-standard residues stand in square brackets, D forms with d. Residues, ends and D or L forms follow the SMILES beside them. X1 = CCCCC[C@H](O[*:1])C(=O)[*:2]; Ahp(2) = CCCCC[C@H](N)C(=O)O; dNMeA = CN[C@H](C)C(=O)O

Experiments:
Assay type in all cases: ADME
[1] = Permeability of compound assessed as compound recovery incubated for 14 to 18 hrs by PAMPA; details: time 14-18 hrs, read-out: Drug recovery
[2] = Permeability of compound assessed as compound diffusion incubated for 14 to 18 hrs by PAMPA; details: time 14-18 hrs
[3] = Apparent permeability of compound incubated for 14 to 18 hrs by PAMPA; details: time 14-18 hrs

SMILES: CCCCC[C@H](NC(=O)[C@@H](C)N(C)C(=O)[C@H](CCCCC)NC(=O)[C@@H](C)N(C)C(=O)[C@H](CCCCC)OC(=O)[C@@H](C)N(C)C(=O)[C@H](CCCCC)OC(=O)[C@@H](C)N(C)C(=O)OC(C)(C)C)C(=O)OCc1ccccc1
- recovery [1]: 92%

SMILES: CCCCC[C@@H]1NC(=O)[C@@H](C)N(C)C(=O)[C@H](CCCCC)OC(=O)[C@@H](C)N(C)C(=O)[C@H](CCCCC)NC(=O)[C@@H](C)N(C)C(=O)[C@H](CCCCC)OC(=O)[C@@H](C)N(C)C1=O (cyclo([Ahp(2)][dNMeA][X1][dNMeA][Ahp(2)][dNMeA][X1][dNMeA]))
- Activity [2]: 25%

SMILES: CCCCC[C@H](NC(=O)[C@@H](C)N(C)C(=O)[C@H](CCCCC)OC(=O)[C@@H](C)N(C)C(=O)[C@H](CCCCC)OC(=O)[C@@H](C)N(C)C(=O)[C@H](CCCCC)OC(=O)[C@@H](C)N(C)C(=O)OC(C)(C)C)C(=O)OCc1ccccc1
- recovery [1]: 93%

SMILES: CCCCC[C@H](NC(=O)[C@@H](C)N(C)C(=O)[C@H](CCCCC)NC(=O)[C@@H](C)N(C)C(=O)[C@H](CCCCC)NC(=O)[C@@H](C)N(C)C(=O)[C@H](CCCCC)OC(=O)[C@@H](C)N(C)C(=O)OC(C)(C)C)C(=O)OCc1ccccc1
- recovery [1]: 89%
- Activity [2]: 12%

SMILES: CCCCC[C@H](OC(=O)[C@@H](C)N(C)C(=O)[C@H](CCCCC)OC(=O)[C@@H](C)N(C)C(=O)[C@H](CCCCC)OC(=O)[C@@H](C)N(C)C(=O)[C@H](CCCCC)OC(=O)[C@@H](C)N(C)C(=O)[C@H](CCCCC)OC(=O)[C@@H](C)N(C)C(=O)[C@H](CCCCC)OC(=O)[C@@H](C)N(C)C(=O)OC(C)(C)C)C(=O)OCc1ccccc1
- Papp [3]: Below_limit_of_detection
- logPapp [3]: Below_limit_of_detection
- Activity [2]: < 5%
